Test results reported in patent US4180582A, “6-n-Propyl-8-methoxy-methyl or methylmercaptomethylergolines and related compounds as prolactin inhibitors and to treat Parkinson's syndrome” (priority 1979, dated 1979).
Counter-ions that a name gives are not always drawn.

Key:
[1] = test system: dopamine receptors; test: inhibition of high affinity binding of tritiated dopamine to dopamine receptors in membranes from striatal synaptosomes; design: species or system bovine; conditions: in words
[2] = test system: serotonin; test: serotonin agonism; conditions: in words
[3] = test system: 6-hydroxydopamine-lesioned rats; test: turning behavior test in 6-hydroxydopamine-lesioned rats; assay type: in vivo, rat; conditions: for Average Number of Turns/rat: first 15 minutes after end of latency period
Description: In this test, nigro-neostriatal-lesioned rats are employed, which are prepared by the procedure of Ungerstedt and Arbuthnott, Brain Res, 24, 485 (1970). A compound having dopamine agonist activity causes the rats to turn in circles contralateral to the side of the lesion. After a latency period, which varies from compound to compound, the number of turns is counted over a 15-minute period.
The compounds were dissolved in water and the aqueous solution injected into the rat by the intraperitoneal route.

[4] = test system: prolactin; test: inhibition of prolactin secretion in reserpine-treated male rats; assay type: in vivo, rat (Sprague-Dawley); design: Serum Prolactin Level: unit not given here; conditions: for Percent Inhibition of Serum Prolactin: vs. control of same experiment
Description: Adult male rates of the Sprague-Dawley strain weighing about 200 g. were housed in an air-conditioned room with controlled lighting (lights on 6 a.m.-8 p.m.) and fed lab chow and water ad libitum. Each rat received an intraperitoneal injection of 2.0 mg. of reserpine in aqueous suspension 18 hours before administration of the ergoline derivative. The purpose of the reserpine was to keep prolactin levels uniformly elevated. The compounds under test were dissolved in 10 percent ethanol at a concentration of 10 mcg.ml. and were injected intraperitoneally at a standard dose of 50 mcg/kg. Each compound was administered to a group of 10 rats, and a control group of 10 intact males received an equivalent amount of 10 percent ethanol. One hour after treatment all rats were killed by decapitation, and 150 μl aliquots of serum were assayed for prolactin. The results were evaluated statistically using Student's "t" test to calculate the level of significance, "p", of the changes in prolactin level.
The difference between the prolactin level of the treated rats and prolactin level of the control rats, divided by the prolactin level of the control rats gives the percent inhibition of prolactin secretion attributable to the compounds of this invention. In the table, column 1 gives the name of the compound; column 2, the prolactin level for each group of rats; column 3, the percent prolactin inhibition; and column 4, the level of significance. The data were collected from three separate experiments, each with its own control, and Table 2 sets forth the results obtained by experiment.

[5] = test system: Parkinsonism; conditions: in words; cited from earlier work
[6] = test system: prolactin; conditions: in words; cited from earlier work
[7] = test system: dopamine receptors; conditions: in words; cited from earlier work
[8] = in words; cited from earlier work
[9] = 50 mcg/kg i.p., one hour after treatment

Row | SMILES | % of Rats Exhibiting Turning Behavior ([3]; IP dose 1 mg/kg) [%] | Duration of Effect ([3]; IP dose 1 mg/kg) [h] | Latency of Effect ([3]; IP dose 1 mg/kg) [min] | Percent Inhibition of Serum Prolactin [4, 9] [%] | other results
1 | CCCN1C[C@H](CSC)C[C@@H]2c3cccc4[nH]cc(c34)C[C@H]21 [D-6-n-Propyl-8β-methylmercaptomethylergoline] |  |  |  |  | inhibition of high affinity binding of tritiated dopamine [1]: extremely potent inhibitors; serotonin agonist / antagonist activity [2]: serotonin agonists rather than serotonin antagonists
2 | CCCN1C[C@H](C[S+](C)[O-])C[C@@H]2c3cccc4[nH]cc(c34)C[C@H]21 (stereo partly drawn) [D-6-n-propyl-8β-methylsulfinylmethylergoline mesylate] | 100 | 1 | 7 | 92 | Average Number of Turns/rat ([3]; IP dose 1 mg/kg): 65 Turns/rat; Serum Prolactin Level ([4]; 50 mcg/kg i.p., one hour after treatment, reserpine-treated male rats): 3.3
3 | CN1C[C@H](CC#N)C[C@@H]2c3cccc4[nH]c(Cl)c(c34)C[C@H]21 [legotrile] |  |  |  |  | usefulness in the treatment of Parkinsonism [5]: useful in the treatment of Parkinsonism
4 | CCCN1C[C@H](CSC)C[C@@H]2c3cccc4[nH]c(Br)c(c34)C[C@H]21 [D-2-bromo-6-n-propyl-8β-methylmercaptomethylergoline mesylate] | 100 | 1 | 5 | 89 | Average Number of Turns/rat ([3]; IP dose 1 mg/kg): 71 Turns/rat
5 | CCCN1CC(CSC)=C[C@@H]2c3cccc4[nH]cc(c34)C[C@H]21 [D-6-n-propyl-8-methylmercaptomethyl-8-ergolene maleate] | 100 | 1 | 4 | 91 | 
6 | CC(C)C1C(=O)N2CCCC2C2(O)OC(NC(=O)C3CC4c5cccc6[nH]cc(c56)CC4N(C)C3)(C(C)C)C(=O)N12 (stereo not shown) [dihydroergocornine] |  |  |  |  | activity as prolactin inhibitors [6]: activity as prolactin inhibitors
7 | CC(C)C[C@H]1C(=O)N2CCC[C@H]2[C@]2(O)O[C@](NC(=O)[C@@H]3C=C4c5cccc6[nH]c(Br)c(c56)C[C@H]4N(C)C3)(C(C)C)C(=O)N12 (stereo in doubt) [2-bromo-α-ergokryptine] |  |  |  |  | usefulness in the treatment of Parkinsonism [5]: useful in the treatment of Parkinsonism; activity as prolactin inhibitors [6]: activity as prolactin inhibitors; dopamine receptor stimulation [7]: stimulate dopamine receptors
8 | CCCN1C[C@H](CSC)C[C@@H]2c3cccc4[nH]cc(c34)C[C@H]21 [D-6-n-propyl-8β-methylmercaptomethylergoline methanesulfonate] |  | ≥ 24 |  |  | relative potency in the turning behavior test ([3]; vs. corresponding D-6-methyl derivative, dose response curves): about 30 times; relative potency as a prolactin inhibitor ([4]; vs. corresponding D-6-methyl compound, dose response curves): about 100 times
9 | CCCN1C[C@H](CSC)C=C2c3cccc4[nH]cc(c34)C[C@H]21 [D-6-n-propyl-8β-methylmercaptomethyl-9-ergolene] | 100 | ≥ 2 | 4 | 81 | Average Number of Turns/rat ([3]; IP dose 1 mg/kg): 200 Turns/rat
10 | CCN1C[C@H](CSC)C[C@@H]2c3cccc4[nH]cc(c34)C[C@H]21 [D-6-ethyl-8β-methylmercaptomethylergoline mesylate] | 100 | ≥ 2 | 9 | 91 | 
11 | CSC[C@@H]1C[C@@H]2c3cccc4[nH]cc(c34)C[C@H]2N(C)C1 [D-6-methyl-8β-methylmercaptomethylergoline mesylate, reference compound] | 50 |  |  | 58 | Duration of Effect in Hours ([3]; IP dose 1 mg/kg): ~ 2 Hours; Average Number of Turns/rat ([3]; IP dose 1 mg/kg): 51 Turns/rat
12 | N[C@@H](Cc1ccc(O)c(O)c1)C(=O)O [Example 1-dopa, 1-dihydroxyphenylalanine] |  |  |  |  | metabolism [8]: rapidly metabolized
13 | CC(C)[C@H]1C(=O)N2CCC[C@H]2[C@]2(O)O[C@](NC(=O)[C@@H]3C=C4c5cccc6[nH]cc(c56)C[C@H]4N(C)C3)(C(C)C)C(=O)N12 [ergocornine] |  |  |  |  | activity as prolactin inhibitors [6]: activity as prolactin inhibitors; dopamine receptor stimulation [7]: stimulate dopamine receptors
14 | CN1CC(CC#N)C[C@@H]2c3cccc4[nH]cc(c34)C[C@H]21 (stereo partly drawn) [D-6-methyl-8-cyanomethylergoline] |  |  |  |  | activity as prolactin inhibitors [6]: activity as prolactin inhibitors
15 | CCCN1C[C@H](COC)C[C@@H]2c3cccc4[nH]cc(c34)C[C@H]21 [D-6-n-propyl-8β-methoxymethylergoline methanesulfonate] | 100 | ≥ 2 | 6 | 96 | 
